Experimental data reported in article PMC7849553 (Haematologica, 2020).

Tests used:
[1] = target: human CLEC-2 (hFc-CLEC-2) (Homo sapiens, UniProt Q9P126); test: biochemical
[2] = target: mouse CLEC-2 (Fc-mCLEC-2) (Mus musculus, UniProt Q9JL99); test: biochemical
mouse CLEC-2 (Fc-mCLEC-2), sequence (Q9JL99 53-229 limits assumed): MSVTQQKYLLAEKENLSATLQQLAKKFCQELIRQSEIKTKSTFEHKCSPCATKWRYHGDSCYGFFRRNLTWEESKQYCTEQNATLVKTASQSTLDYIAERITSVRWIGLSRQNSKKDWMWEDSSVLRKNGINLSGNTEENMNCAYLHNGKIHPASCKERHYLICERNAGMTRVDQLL

human CLEC-2 (hFc-CLEC-2), sequence (Q9P126 55-229 limits assumed): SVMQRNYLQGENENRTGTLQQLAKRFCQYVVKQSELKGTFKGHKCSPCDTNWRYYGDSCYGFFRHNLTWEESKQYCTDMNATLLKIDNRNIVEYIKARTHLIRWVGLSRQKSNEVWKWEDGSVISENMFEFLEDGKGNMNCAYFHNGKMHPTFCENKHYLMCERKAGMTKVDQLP

Question: Which results are given for `C=CC1=C(C)C2=Cc3c(C=C)c(C)c4[n]3[Fe]([Cl])[n]3c(c(C)c(CCC(=O)O)c3=CC3=NC(=C4)C(C)=C3CCC(=O)O)=CC1=N2` [hemin]?
Answer: Kd [1]: ~200 nM; Kd [2]: ~200 nM
